Assay results published in ChEMBL document CHEMBL4725230, “Syntheses and pharmacokinetic evaluations of four metabolites of 2-(4-(2-((1H-benzo[d]imidazol-2-yl)thio)ethyl)piperazin-1-yl)-N-(6-methyl-2,4-bis-(methylthio)pyridin-3-yl)acetamide hydrochloride [K-604], an acyl-CoA:cholesterol O-acyltransferase-1 inhibitor” (Bioorg Med Chem, 2020).

Experiments:
[1] = tested on: Cytochrome P450; test: Drug metabolism in human liver microsomes assessed as Km for cytochrome p450-mediated 2-(4-(2-((1H-Benzo[d]imidazol-2-yl)sulfinyl)ethyl)piperazin-1-yl)-N-(6-methyl-2,4-bis(methylthio)pyridin-3-yl)acetamide formation; format: ADME
[2] = tested on: Cytochrome P450; test: Drug metabolism in human liver microsomes assessed as Km for cytochrome p450-mediated 2-(4-(2-((1H-Benzo[d]imidazol-2-yl)thio)ethyl)piperazin-1-yl)-N-(6-methyl-2-(methyl-sulfinyl)-4-(methylthio)pyridin-3-yl)acetamide formation; format: ADME
[3] = Clearance in human liver microsomes assessed as 2-(4-(2-((1H-Benzo[d]imidazol-2-yl)sulfinyl)ethyl)piperazin-1-yl)-N-(6-methyl-2,4-bis(methylthio)pyridin-3-yl)acetamide level per mg protein; format: ADME, Microsome
[4] = Metabolic stability in cynomolgus monkey plasma assessed as parent compound remaining formation at 10 mg/kg, administered into stomach using nasogastric catheter measured upto 360 mins by column-switching HPLC method; format: ADME, organism-based, Macaca fascicularis; conditions: in vivo, po, 6 h
[5] = tested on: Cytochrome P450; test: Drug metabolism in human liver microsomes assessed as Vmax for cytochrome p450-mediated 2-(4-(2-((1H-Benzo[d]imidazol-2-yl)thio)ethyl)piperazin-1-yl)-N-(6-methyl-4-(methylsulfinyl)-2-(methylthio)pyridin-3-yl)acetamide formation; format: ADME
[6] = Drug metabolism in cynomolgus monkey plasma assessed as 2-(4-(2-((5-Hydroxy-1H-benzo[d]imidazol-2-yl)thio)ethyl)piperazin-1-yl)-N-(6-methyl-2,4-bis(methylthio)pyridin-3-yl)acetamide formation at 10 mg/kg, administered into stomach using nasogastric catheter measured upto 360 mins by column-switching HPLC method; format: ADME, organism-based, Macaca fascicularis; conditions: in vivo, po, 6 h
[7] = target: T1, Cytochrome P450 2C11 (Rattus norvegicus, UniProt P08683); test: Drug metabolism in […] rat liver microsomes assessed as CYP2C11-mediated 2-(4-(2-((1H-Benzo[d]imidazol-2-yl)thio)ethyl)piperazin-1-yl)-N-(6-methyl-4-(methylsulfinyl)-2-(methylthio)pyridin-3-yl)acetamide formation; format: ADME
T1 sequence (P08683 whole entry): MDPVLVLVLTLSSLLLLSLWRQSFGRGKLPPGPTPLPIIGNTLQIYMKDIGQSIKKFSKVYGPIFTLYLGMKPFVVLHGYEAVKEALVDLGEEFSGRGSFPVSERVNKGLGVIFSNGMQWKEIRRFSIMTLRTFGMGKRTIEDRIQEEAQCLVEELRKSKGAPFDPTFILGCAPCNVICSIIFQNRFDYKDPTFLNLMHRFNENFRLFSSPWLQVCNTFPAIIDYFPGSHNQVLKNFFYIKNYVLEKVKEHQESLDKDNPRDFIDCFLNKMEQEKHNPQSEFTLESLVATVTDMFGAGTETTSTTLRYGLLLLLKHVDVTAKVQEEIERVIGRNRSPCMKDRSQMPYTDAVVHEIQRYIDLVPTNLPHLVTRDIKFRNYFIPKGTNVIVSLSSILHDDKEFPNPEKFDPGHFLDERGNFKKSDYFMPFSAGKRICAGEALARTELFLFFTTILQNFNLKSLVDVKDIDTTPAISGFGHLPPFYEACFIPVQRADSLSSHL

[8] = tested on: Cytochrome P450; test: Drug metabolism in human liver microsomes assessed as Vmax for cytochrome p450-mediated 2-(4-(2-((1H-Benzo[d]imidazol-2-yl)sulfinyl)ethyl)piperazin-1-yl)-N-(6-methyl-2,4-bis(methylthio)pyridin-3-yl)acetamide formation; format: ADME
[9] = target: T2, Cytochrome P450 3A5 (Homo sapiens, UniProt P20815); test: Drug metabolism in human liver microsomes assessed as CYP3A5-mediated 2-(4-(2-((5-Hydroxy-1H-benzo[d]imidazol-2-yl)thio)ethyl)piperazin-1-yl)-N-(6-methyl-2,4-bis(methylthio)pyridin-3-yl)acetamide formation; format: ADME
[10] = target: T3, Cytochrome P450 3A4 (Homo sapiens, UniProt P08684); test: Drug metabolism in human liver microsomes assessed as CYP3A4-mediated 2-(4-(2-((5-Hydroxy-1H-benzo[d]imidazol-2-yl)thio)ethyl)piperazin-1-yl)-N-(6-methyl-2,4-bis(methylthio)pyridin-3-yl)acetamide formation; format: ADME
[11] = target: T2, Cytochrome P450 3A5; test: Drug metabolism in human liver microsomes assessed as CYP3A5-mediated 2-(4-(2-((1H-Benzo[d]imidazol-2-yl)sulfinyl)ethyl)piperazin-1-yl)-N-(6-methyl-2,4-bis(methylthio)pyridin-3-yl)acetamide formation; format: ADME
[12] = target: T4, Cytochrome P450 2C9 (Homo sapiens, UniProt P11712); test: Drug metabolism in human liver microsomes assessed as CYP2C9-mediated 2-(4-(2-((5-Hydroxy-1H-benzo[d]imidazol-2-yl)thio)ethyl)piperazin-1-yl)-N-(6-methyl-2,4-bis(methylthio)pyridin-3-yl)acetamide formation; format: ADME
[13] = target: T4, Cytochrome P450 2C9; test: Drug metabolism in human liver microsomes assessed as CYP2C9-mediated 2-(4-(2-((1H-Benzo[d]imidazol-2-yl)sulfinyl)ethyl)piperazin-1-yl)-N-(6-methyl-2,4-bis(methylthio)pyridin-3-yl)acetamide formation; format: ADME
[14] = tested on: Cytochrome P450; test: Drug metabolism in human liver microsomes assessed as Vmax for cytochrome p450-mediated 2-(4-(2-((5-Hydroxy-1H-benzo[d]imidazol-2-yl)thio)ethyl)piperazin-1-yl)-N-(6-methyl-2,4-bis(methylthio)pyridin-3-yl)acetamide formation; format: ADME
[15] = target: T4, Cytochrome P450 2C9; test: Drug metabolism in human liver microsomes assessed as CYP2C9-mediated 2-(4-(2-((1H-Benzo[d]imidazol-2-yl)thio)ethyl)piperazin-1-yl)-N-(6-methyl-4-(methylsulfinyl)-2-(methylthio)pyridin-3-yl)acetamide formation; format: ADME
[16] = Drug metabolism in cynomolgus monkey plasma assessed as 2-(4-(2-((1H-Benzo[d]imidazol-2-yl)sulfinyl)ethyl)piperazin-1-yl)-N-(6-methyl-2,4-bis(methylthio)pyridin-3-yl)acetamide formation at 10 mg/kg, administered into stomach using nasogastric catheter measured upto 360 mins by column-switching HPLC method; format: ADME, organism-based, Macaca fascicularis; conditions: in vivo, po, 6 h
[17] = tested on: Cytochrome P450; test: Drug metabolism in human liver microsomes assessed as Km for cytochrome p450-mediated 2-(4-(2-((1H-Benzo[d]imidazol-2-yl)thio)ethyl)piperazin-1-yl)-N-(6-methyl-4-(methylsulfinyl)-2-(methylthio)pyridin-3-yl)acetamide formation; format: ADME
[18] = Drug metabolism in cynomolgus monkey plasma assessed as 2-(4-(2-((1H-Benzo[d]imidazol-2-yl)thio)ethyl)piperazin-1-yl)-N-(6-methyl-4-(methylsulfinyl)-2-(methylthio)pyridin-3-yl)acetamide formation at 10 mg/kg, administered into stomach using nasogastric catheter measured upto 360 mins by column-switching HPLC method; format: ADME, organism-based, Macaca fascicularis; conditions: in vivo, po, 6 h
[19] = target: T2, Cytochrome P450 3A5; test: Drug metabolism in human liver microsomes assessed as CYP3A5-mediated 2-(4-(2-((1H-Benzo[d]imidazol-2-yl)thio)ethyl)piperazin-1-yl)-N-(6-methyl-2-(methyl-sulfinyl)-4-(methylthio)pyridin-3-yl)acetamide formation; format: ADME
[20] = target: T5, Cytochrome P450 3A2 (Rattus norvegicus, UniProt P05183); test: Drug metabolism in male rat liver microsomes assessed as CYP3A2-mediated 2-(4-(2-((1H-Benzo[d]imidazol-2-yl)thio)ethyl)piperazin-1-yl)-N-(6-methyl-2-(methyl-sulfinyl)-4-(methylthio)pyridin-3-yl)acetamide formation; format: ADME
T5 sequence (P05183 whole entry): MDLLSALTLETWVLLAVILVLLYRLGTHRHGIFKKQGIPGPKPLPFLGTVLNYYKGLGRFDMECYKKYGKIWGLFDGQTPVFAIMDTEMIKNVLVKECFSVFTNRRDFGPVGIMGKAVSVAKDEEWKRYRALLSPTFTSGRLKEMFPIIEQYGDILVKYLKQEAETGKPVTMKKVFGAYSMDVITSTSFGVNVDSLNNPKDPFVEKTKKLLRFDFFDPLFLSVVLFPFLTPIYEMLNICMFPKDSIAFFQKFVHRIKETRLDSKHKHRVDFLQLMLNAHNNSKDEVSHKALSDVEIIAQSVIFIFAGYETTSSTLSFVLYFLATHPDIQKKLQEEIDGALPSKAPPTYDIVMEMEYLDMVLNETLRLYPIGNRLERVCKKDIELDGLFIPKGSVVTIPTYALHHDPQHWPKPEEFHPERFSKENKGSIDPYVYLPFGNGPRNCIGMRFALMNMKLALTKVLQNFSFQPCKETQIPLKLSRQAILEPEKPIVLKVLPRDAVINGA

[21] = tested on: Cytochrome P450; test: Drug metabolism in human liver microsomes assessed as Km for cytochrome p450-mediated 2-(4-(2-((5-Hydroxy-1H-benzo[d]imidazol-2-yl)thio)ethyl)piperazin-1-yl)-N-(6-methyl-2,4-bis(methylthio)pyridin-3-yl)acetamide formation; format: ADME
[22] = target: T3, Cytochrome P450 3A4; test: Drug metabolism in human liver microsomes assessed as CYP3A4-mediated 2-(4-(2-((1H-Benzo[d]imidazol-2-yl)thio)ethyl)piperazin-1-yl)-N-(6-methyl-4-(methylsulfinyl)-2-(methylthio)pyridin-3-yl)acetamide formation; format: ADME
[23] = target: T4, Cytochrome P450 2C9; test: Drug metabolism in human liver microsomes assessed as CYP2C9-mediated 2-(4-(2-((1H-Benzo[d]imidazol-2-yl)thio)ethyl)piperazin-1-yl)-N-(6-methyl-2-(methyl-sulfinyl)-4-(methylthio)pyridin-3-yl)acetamide formation; format: ADME
[24] = Clearance in human liver microsomes assessed per mg protein for 5 mins in presence of NADPH by LC-MS/MS analysis; format: ADME, Microsome; conditions: read-out: CLH
[25] = Clearance in human liver microsomes assessed as 2-(4-(2-((1H-Benzo[d]imidazol-2-yl)thio)ethyl)piperazin-1-yl)-N-(6-methyl-2-(methyl-sulfinyl)-4-(methylthio)pyridin-3-yl)acetamide level per mg protein; format: ADME, Microsome
[26] = target: T2, Cytochrome P450 3A5; test: Drug metabolism in human liver microsomes assessed as CYP3A5-mediated 2-(4-(2-((1H-Benzo[d]imidazol-2-yl)thio)ethyl)piperazin-1-yl)-N-(6-methyl-4-(methylsulfinyl)-2-(methylthio)pyridin-3-yl)acetamide formation; format: ADME
[27] = target: Cytochrome P450 2D6 (Homo sapiens, UniProt P10635); test: Drug metabolism in human liver microsomes assessed as CYP2D6-mediated 2-(4-(2-((1H-Benzo[d]imidazol-2-yl)thio)ethyl)piperazin-1-yl)-N-(6-methyl-4-(methylsulfinyl)-2-(methylthio)pyridin-3-yl)acetamide formation; format: ADME
[28] = Metabolic stability in male rat liver microsomes assessed as assessed as parent compound remaining; format: ADME, Microsome
[29] = Clearance in human liver microsomes assessed as 2-(4-(2-((5-Hydroxy-1H-benzo[d]imidazol-2-yl)thio)ethyl)piperazin-1-yl)-N-(6-methyl-2,4-bis(methylthio)pyridin-3-yl)acetamide level per mg protein; format: ADME, Microsome
[30] = Drug metabolism in cynomolgus monkey plasma assessed as 2-(4-(2-((1H-Benzo[d]imidazol-2-yl)thio)ethyl)piperazin-1-yl)-N-(6-methyl-2-(methyl-sulfinyl)-4-(methylthio)pyridin-3-yl)acetamide formation at 10 mg/kg, administered into stomach using nasogastric catheter measured upto 360 mins by column-switching HPLC method; format: ADME, organism-based, Macaca fascicularis; conditions: in vivo, po, 6 h
[31] = tested on: Cytochrome P450; test: Drug metabolism in human liver microsomes assessed as Vmax for cytochrome p450-mediated 2-(4-(2-((1H-Benzo[d]imidazol-2-yl)thio)ethyl)piperazin-1-yl)-N-(6-methyl-2-(methyl-sulfinyl)-4-(methylthio)pyridin-3-yl)acetamide formation; format: ADME
[32] = target: T5, Cytochrome P450 3A2; test: Drug metabolism in male rat liver microsomes assessed as CYP3A2-mediated 2-(4-(2-((1H-Benzo[d]imidazol-2-yl)thio)ethyl)piperazin-1-yl)-N-(6-methyl-4-(methylsulfinyl)-2-(methylthio)pyridin-3-yl)acetamide formation; format: ADME
[33] = Metabolic stability in female rat liver microsomes assessed as parent compound remaining; format: ADME, Microsome
[34] = target: T3, Cytochrome P450 3A4; test: Drug metabolism in human liver microsomes assessed as CYP3A4-mediated 2-(4-(2-((1H-Benzo[d]imidazol-2-yl)sulfinyl)ethyl)piperazin-1-yl)-N-(6-methyl-2,4-bis(methylthio)pyridin-3-yl)acetamide formation; format: ADME
[35] = Clearance in human liver microsomes assessed as 2-(4-(2-((1H-Benzo[d]imidazol-2-yl)thio)ethyl)piperazin-1-yl)-N-(6-methyl-4-(methylsulfinyl)-2-(methylthio)pyridin-3-yl)acetamide level per mg protein; format: ADME, Microsome
[36] = target: T3, Cytochrome P450 3A4; test: Drug metabolism in human liver microsomes assessed as CYP3A4-mediated 2-(4-(2-((1H-Benzo[d]imidazol-2-yl)thio)ethyl)piperazin-1-yl)-N-(6-methyl-2-(methyl-sulfinyl)-4-(methylthio)pyridin-3-yl)acetamide formation; format: ADME
[37] = Retention time of the compound in human liver microsomes after 5 mins in presence of NADPH by LC-MS/MS analysis; format: ADME, Microsome

T3 sequence (P08684 whole entry): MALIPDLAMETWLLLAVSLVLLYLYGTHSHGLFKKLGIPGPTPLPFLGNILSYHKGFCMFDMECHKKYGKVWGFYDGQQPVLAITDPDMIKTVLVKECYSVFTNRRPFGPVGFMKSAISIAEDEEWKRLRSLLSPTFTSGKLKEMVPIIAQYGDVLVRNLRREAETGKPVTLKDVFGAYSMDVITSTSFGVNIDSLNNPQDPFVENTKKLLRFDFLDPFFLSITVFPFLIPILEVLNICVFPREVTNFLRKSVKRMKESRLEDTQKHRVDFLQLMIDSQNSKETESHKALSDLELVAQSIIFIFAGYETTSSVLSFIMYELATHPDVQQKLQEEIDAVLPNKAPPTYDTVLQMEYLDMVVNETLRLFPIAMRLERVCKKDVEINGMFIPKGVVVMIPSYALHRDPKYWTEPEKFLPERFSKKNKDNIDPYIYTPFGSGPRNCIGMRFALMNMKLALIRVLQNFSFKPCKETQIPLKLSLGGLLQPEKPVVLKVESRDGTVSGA
T4 sequence (P11712 whole entry): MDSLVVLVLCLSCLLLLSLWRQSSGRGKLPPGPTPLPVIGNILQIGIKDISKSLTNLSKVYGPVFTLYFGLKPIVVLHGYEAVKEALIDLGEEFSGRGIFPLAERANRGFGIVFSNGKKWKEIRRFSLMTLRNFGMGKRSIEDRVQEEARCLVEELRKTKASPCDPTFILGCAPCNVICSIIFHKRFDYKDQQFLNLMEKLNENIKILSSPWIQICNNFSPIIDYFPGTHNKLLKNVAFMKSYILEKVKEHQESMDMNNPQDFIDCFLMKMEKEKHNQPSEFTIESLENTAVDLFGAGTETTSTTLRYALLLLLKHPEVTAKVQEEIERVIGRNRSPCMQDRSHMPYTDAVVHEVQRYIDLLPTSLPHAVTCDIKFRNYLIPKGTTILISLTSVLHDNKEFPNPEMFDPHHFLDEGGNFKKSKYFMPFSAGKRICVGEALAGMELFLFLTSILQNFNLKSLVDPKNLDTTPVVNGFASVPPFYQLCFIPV
T2 sequence (P20815 whole entry): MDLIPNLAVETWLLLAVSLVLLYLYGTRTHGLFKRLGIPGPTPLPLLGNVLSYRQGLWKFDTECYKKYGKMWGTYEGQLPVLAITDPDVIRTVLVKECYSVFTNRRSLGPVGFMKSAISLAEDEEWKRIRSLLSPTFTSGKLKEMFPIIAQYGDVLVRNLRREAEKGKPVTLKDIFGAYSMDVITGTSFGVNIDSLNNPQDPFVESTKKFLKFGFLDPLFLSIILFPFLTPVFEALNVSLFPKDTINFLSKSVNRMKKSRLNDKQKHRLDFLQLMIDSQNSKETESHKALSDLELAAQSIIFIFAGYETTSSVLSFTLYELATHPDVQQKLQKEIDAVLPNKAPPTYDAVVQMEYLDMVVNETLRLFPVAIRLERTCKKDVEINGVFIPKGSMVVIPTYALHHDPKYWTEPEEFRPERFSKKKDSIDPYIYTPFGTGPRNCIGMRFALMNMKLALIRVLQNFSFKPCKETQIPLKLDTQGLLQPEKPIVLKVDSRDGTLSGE
Cytochrome P450 2D6, sequence (P10635 whole entry): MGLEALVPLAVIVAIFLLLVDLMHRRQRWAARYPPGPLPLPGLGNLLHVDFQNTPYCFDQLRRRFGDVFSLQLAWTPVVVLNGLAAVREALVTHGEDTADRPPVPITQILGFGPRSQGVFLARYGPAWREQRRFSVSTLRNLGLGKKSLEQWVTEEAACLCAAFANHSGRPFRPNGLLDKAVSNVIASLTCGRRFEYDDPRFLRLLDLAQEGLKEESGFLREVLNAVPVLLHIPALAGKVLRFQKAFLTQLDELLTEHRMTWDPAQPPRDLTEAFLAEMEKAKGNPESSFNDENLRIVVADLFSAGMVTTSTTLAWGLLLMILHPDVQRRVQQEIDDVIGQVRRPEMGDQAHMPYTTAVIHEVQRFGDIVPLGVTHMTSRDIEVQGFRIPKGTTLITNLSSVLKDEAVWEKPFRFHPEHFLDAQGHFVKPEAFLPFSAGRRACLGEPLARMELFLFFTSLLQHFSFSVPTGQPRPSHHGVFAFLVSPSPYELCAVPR

## CSc1cc(C)nc(SC)c1NC(=O)CN1CCN(CCSc2nc3ccccc3[nH]2)CC1.Cl
[1]
  Km: 2.6 µM
[2]
  Km: 4.3 µM
[3]
  CLH: 219 µL/min
[4]
  Stabilty: Stable
[5]
  Vmax: 1773 pmol/min/mg
[6]
  Drug metabolism: Metabolite_Detected
[7]
  Drug metabolism: Metabolite_Notdetected
[8]
  Vmax: 558 pmol/min/mg
[9]
  Drug metabolism: Metabolite_Detected
[10]
  Drug metabolism: Metabolite_Detected
[11]
  Drug metabolism: Metabolite_Detected
[12]
  Drug metabolism: Metabolite_Notdetected
[13]
  Drug metabolism: Metabolite_Notdetected
[14]
  Vmax: 343 pmol/min/mg
[15]
  Drug metabolism: Metabolite_Notdetected
[16]
  Drug metabolism: Metabolite_Detected
[17]
  Km: 1.3 µM
[18]
  Drug metabolism: Metabolite_Detected
[19]
  Drug metabolism: Metabolite_Detected
[20]
  Drug metabolism: Metabolite_Detected
[21]
  Km: 2 µM
[22]
  Drug metabolism: Metabolite_Detected
[23]
  Drug metabolism: Metabolite_Notdetected
[24]
  microsomal CLint: 720 µL/min/mg
[25]
  CLH: 125 µL/min
[26]
  Drug metabolism: Metabolite_Detected
[27]
  Drug metabolism: Metabolite_Detected
[28]
  Stabilty: 5.2%
[29]
  CLH: 168 µL/min
[30]
  Drug metabolism: Metabolite_Notdetected
[31]
  Vmax: 363 pmol/min/mg
[32]
  Drug metabolism: Metabolite_Detected
[33]
  Stabilty: 76.1%
[34]
  Drug metabolism: Metabolite_Detected
[35]
  CLH: 1353 µL/min
[36]
  Drug metabolism: Metabolite_Detected

## CSc1nc(C)cc([S+](C)[O-])c1NC(=O)CN1CCN(CCSc2nc3ccccc3[nH]2)CC1 (configuration not stated)
[37]
  Retention_time: 3.37 min
